Data: the supplement of paper PMC4932681
Counter-ions that a name gives are not always drawn.

Legend:
Experiment in all cases: viability inhibition at highest dose (% inhibition); higher = more growth inhibition
[1] = system: BT-474 Tam1; settings: 4-OH-tamoxifen in medium 1 µM; 72 h
Method in brief: (§1)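 CellTiter-Glo viability was the readout, taken on a PHERAstar and normalised to vehicle-only and positive controls. It was measured after breast cancer cell lines and their resistant derivatives spent 72 h at 37 °C in 384-well plates containing library drugs at five concentrations spanning a 10 000-fold range, with 1 μM of the selecting drug in the medium of resistant lines. From logistic dose–response fits in the Breeze pipeline came drug sensitivity score, relative IC50 (curve midpoint) and top-dose inhibition.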

[2] = system: BT-474 Tam2; settings: 4-OH-tamoxifen in medium 1 µM; 72 h
Method in brief: as §1

[3] = system: BT-474; settings: 72 h
Method in brief: as §1

[4] = system: MCF-7 Tam1; settings: 4-OH-tamoxifen in medium 1 µM; 72 h
Method in brief: as §1

[5] = system: MCF-7; settings: 72 h
Method in brief: as §1

[6] = system: T-47D Tam1; settings: 4-OH-tamoxifen in medium 1 µM; 72 h
Method in brief: as §1

[7] = system: T-47D Tam2; settings: 4-OH-tamoxifen in medium 1 µM; 72 h
Method in brief: as §1

[8] = system: T-47D; settings: 72 h
Method in brief: as §1

[9] = system: ZR-75-1 Tam1; settings: 4-OH-tamoxifen in medium 1 µM; 72 h
Method in brief: as §1

[10] = system: ZR-75-1 Tam2; settings: 4-OH-tamoxifen in medium 1 µM; 72 h
Method in brief: as §1

[11] = system: ZR-75-1; settings: 72 h
Method in brief: as §1

Structure (SMILES) | viability inhibition at highest dose [1] | viability inhibition at highest dose [2] | viability inhibition at highest dose ([3]; 4-OH-tamoxifen in medium 0 µM) | viability inhibition at highest dose ([3]; 4-OH-tamoxifen in medium 1 µM) | viability inhibition at highest dose [4] | viability inhibition at highest dose ([5]; 4-OH-tamoxifen in medium 0 µM) | viability inhibition at highest dose ([5]; 4-OH-tamoxifen in medium 1 µM) | viability inhibition at highest dose [6] | viability inhibition at highest dose [7] | viability inhibition at highest dose ([8]; 4-OH-tamoxifen in medium 0 µM) | viability inhibition at highest dose ([8]; 4-OH-tamoxifen in medium 1 µM) | viability inhibition at highest dose [9] | viability inhibition at highest dose [10] | viability inhibition at highest dose ([11]; 4-OH-tamoxifen in medium 0 µM) | viability inhibition at highest dose ([11]; 4-OH-tamoxifen in medium 1 µM)
O=C(O)C(=O)O.[NH-][C@@H]1CCCC[C@H]1[NH-].[Pt+2] [Oxaliplatin] (drug 10000 nM) | -7.39 | 1.63 | -9.5 | -21.1 | -5.32 | 4.06 | 3.34 | 1.11 | 5.52 | -7.69 | -13.3 | 4.08 | 5.48 | 2.13 | -0.0598
CN(C)C[C@@H]1CCn2cc(c3ccccc32)C2=C(C(=O)NC2=O)c2cn(c3ccccc23)CCO1 (drug 10000 nM) | 100 | 98 | 76 | 101 | 22.1 | 99.8 | 69.5 | 71.2 | 70.2 | 72.1 | 97.4 | 37.7 | 47.1 | 45.5 | 70.9
COc1cc(CCc2cc(NC(=O)c3ccc(N4CC(C)NC(C)C4)cc3)n[nH]2)cc(OC)c1 (stereo not given) [AZD4547] (drug 1000 nM) | 8.22 | -5.95 | -7.84 | 5.15 | -1.84 | -4.05 | 2.4 | -9.97 | -1.01 | -22.2 | 8.39 | 1.86 | -8.6 | -14.5 | -5.83
CCNC(=O)CCC/C=C\C[C@@H]1[C@@H](/C=C/[C@@H](O)CCc2ccccc2)[C@H](O)C[C@@H]1O [Bimatoprost] (drug 5500 nM) | -14.6 | -16.2 | -10.2 | -22.1 | -5.08 | 10.1 | -1.71 | -9.33 | -4.37 | -18.2 | -17.9 | -5.04 | -15.8 | -13.7 | -4.04
CC(C)(C)c1cc(NC(=O)Nc2ccc(-c3cn4c(n3)sc3cc(OCCN5CCOCC5)ccc34)cc2)no1 [Quizartinib (AC220)] (drug 1000 nM) | -3.77 | -5.01 | -0.626 | -13.2 | 3.09 | -2.81 | 6.24 | 11.5 | 15.8 | 11 | 9.31 | -2.41 | 5.08 | -17 | 8.56
O=C(c1ccc(OCCN2CCCCC2)cc1)c1c(-c2ccc(O)cc2)sc2cc(O)ccc12 [Raloxifene  HCl] (drug 10000 nM) | 44.3 | 34.8 | 22.8 | 54 | 21.5 | 33.2 | 33.8 | 12.6 | 25.9 | 11.3 | 9.48 | 9.11 | 2.72 | 11.9 | 13.3
CC(C)C(=O)Nc1ccc([N+](=O)[O-])c(C(F)(F)F)c1 [Flutamide] (drug 10000 nM) | 6.08 | 6.26 | -10.2 | -11.4 | -3.99 | -18 | 15.9 | 6.02 | 11.2 | 0.571 | -1.73 | -0.0944 | -5.1 | -10.7 | -3.17
CC1=C(/C=C/C(C)=C/C=C/C(C)=C/C(=O)O)C(C)(C)CCC1 [Tretinoin] (drug 10000 nM) | -5.43 | 7.81 | -1.01 | -18.6 | 15.9 | -12.3 | 14.5 | 14.5 | 14.5 | 3.78 | 2.8 | 5.21 | 4.01 | 0.707 | -8.55
Nc1ccccc1NC(=O)c1ccc(CNC(=O)OCc2cccnc2)cc1 [Entinostat] (drug 10000 nM) | 79 | 53.2 | 61.4 | 83.9 | 5.52 | 62.3 | 40.4 | 60.3 | 10.9 | 66.4 | 36.6 | 28.8 | 27.5 | 33.7 | 10.2
C=CCN(/C=C1/C(=O)O[C@H](COC)[C@@]2(C)C1=C(O)C(=O)C1=C2[C@H](OC(C)=O)C[C@]2(C)C(=O)CC[C@@H]12)CC=C [Sonolisib (PX-866)] (drug 10000 nM) | -5.08 | -8.14 | -6.97 | -17.3 | -2.1 | -6.01 | 11.3 | 9.15 | 9.95 | -6.68 | 0.837 | 15.2 | 13.3 | 7.54 | 18.1
Cc1ccc([N+](=O)[O-])cc1S(=O)(=O)N(C)/N=C/c1cnc2ccc(Br)cn12 [PIK-75 (HCl)] (drug 10000 nM) | 99.3 | 98.6 | 97.9 | 97.7 | 81.4 | 64.9 | 85.5 | 91.4 | 83.6 | 60.4 | 56.9 | 88.8 | 83.9 | 80 | 71
O=P1(N(CCCl)CCCl)NCCCO1 (stereo not given) [Clafen (Cyclophosphamide, Endoxan)] (drug 40000 nM) | -0.665 | 2.47 | -4.59 | -11.3 | 1.76 | -6.33 | 11 | -3.65 | 11.9 | -14 | -13.7 | 7.03 | -3.35 | -3.78 | -1.89
Cc1cn(-c2cc(NC(=O)c3ccc(C)c(Nc4nccc(-c5cccnc5)n4)c3)cc(C(F)(F)F)c2)cn1 [Nilotinib] (drug 10000 nM) | 22.9 | 1.02 | -6.7 | 1.42 | -8.69 | 5.79 | 5.88 | -0.169 | 2.08 | -17.5 | -20.8 | 2.47 | -2.53 | -11.8 | -6.98
Cn1cnc2c(F)c(Nc3ccc(Br)cc3F)c(C(=O)NOCCO)cc21 [MEK-162 (ARRY-162)] (drug 1000 nM) | 2.68 | -1.22 | -13.3 | 6.81 | 10.4 | 12.2 | 20.8 | 17.2 | 14.1 | -6.66 | -10.7 | -1.39 | 7.88 | -6.09 | -7.06
CS(=O)(=O)OCCCCOS(C)(=O)=O [Busulfan] (drug 100000 nM) | -2.76 | 1 | 1.99 | 8.07 | -1.89 | -5.52 | 10.5 | 1.25 | 6.32 | -1.41 | -0.37 | -5.35 | -11.6 | 1.38 | -1.26
COc1ccc(-c2cc3c(C)nc(N)nc3n([C@H]3CC[C@H](OCCO)CC3)c2=O)cn1 (drug 10000 nM) | 100 | 94.3 | 96.1 | 100 | 67.1 | 79.9 | 82.6 | 92.6 | 88.2 | 94.6 | 93.7 | 86.8 | 88.1 | 83.5 | 76.1
CC(=O)O[C@@]12CO[C@@H]1C[C@H](O)[C@@]1(C)C(=O)[C@H](O)C3=C(C)[C@@H](OC(=O)[C@H](O)[C@@H](NC(=O)OC(C)(C)C)c4ccccc4)C[C@@](O)([C@@H](OC(=O)c4ccccc4)[C@H]21)C3(C)C [Docetaxel] (drug 1000 nM) | 38.1 | 13.4 | 45.8 | 62.5 | -2.6 | 31.6 | 24.3 | 27.5 | 37.3 | 44.4 | 8.26 | 6.28 | 1.01 | -2.11 | 1.03
N.N.[Cl][Pt][Cl] [Cisplatin] (drug 10000 nM) | -9.25 | 2.59 | -3.72 | -4.53 | 3.44 | -20.9 | 0.697 | -3.02 | 8.3 | -16.1 | -8.72 | 3.43 | -1.7 | -8.66 | -5.04
Cc1cccc(-c2nn3c(c2-c2ccnc4ccc(C(N)=O)cc24)CCC3)n1 (drug 1000 nM) | -3.5 | -0.548 | -8.01 | -14 | -5.09 | -2 | 17.5 | 8.11 | -11.8 | -10.5 | -3.66 | -1.45 | 0.591 | -10.5 | -14.4
CNC(=O)c1ccc(N2C(=S)N(c3ccc(C#N)c(C(F)(F)F)c3)C(=O)C23CCC3)cc1F [RD162] (drug 10000 nM) | 13.8 | 13.7 | -4.36 | -3.06 | 3.13 | -8.95 | 8.98 | 3.92 | 3.39 | -17.8 | 17.8 | 2.17 | 1.22 | -4.4 | 3.37
Cc1ccc(NC(=O)c2ccc(CN3CCN(C)CC3)cc2)cc1Nc1nccc(-c2cccnc2)n1 [Imatinib] (drug 10000 nM) | 49.1 | 27.2 | -0.39 | 23.3 | 4.63 | -13.1 | 11.1 | 3.96 | 20.5 | 10.4 | 5.9 | 7.91 | 8.38 | 0.33 | 17.8
COc1ccc(C2=N[C@@H](c3ccc(Cl)cc3)[C@@H](c3ccc(Cl)cc3)N2C(=O)N2CCNC(=O)C2)c(OC(C)C)c1 [Nutlin-3] (drug 10000 nM) | 33.4 | 29.7 | -7.59 | 11.2 | 16.7 | 28.5 | 45.2 | 15.8 | 20.4 | 1.78 | 1.4 | 31.8 | 42.8 | 36 | 29.7
